Structures can show the parent of a compound that is named as a salt.
Legend:
[1] = Equilibrium solubility of ziprasidone salts in 40% (w/v) aqueous HPBCD, HPLC; type: physicochemical; details: 40% (w/v) HPBCD in water, stirred four days at ambient temperature; calculated as free base
Description: Many different experimental protocols can be envisioned and implemented. […] HPBCD was purchased commercially from Wacker Chemie.

[2] = Solubility of ziprasidone salts in water; details: weight of ziprasidone calculated as the free base
[3] = Equilibrium solubility of ziprasidone salts in 40% (w/v) aqueous SBECD, HPLC; details: in 40% SBECD; from Table 1
Description: The following protocol illustrates the protocol employed for the instant invention using 40% aqueous cyclodextrin. The same protocol was employed for other aqueous cyclodextrin concentrations such as those used to generate FIG. 1.
A 40% (w/v) solution of cyclodextrin (SBECD or HPBCD) in water was prepared by adding 200 g of cyclodextrin to a 500 ml beaker containing approximately 250 ml of deionized water and a magnetic stir bar. The contents were stirred until dissolution of the cyclodextrin in the water was complete, usually a time of about one hour being sufficient. The solution was then transferred to a 500 ml volumetric flask and deionized water was added to the mark. 5 ml of the volumetric solution was pipetted into a 10 ml glass vial with a screw cap. […] The vial contents were stirred for four days at ambient temperature to allow a sufficient time for equilibrium to be established. […] The contents were filtered into a clean screw cap vial through a Millex-GS 0.2 μm filter and the drug concentration determined by an HPLC method.
Detection can be by UV absorption at a wavelength of 229 nm. Quantification can be effected facilely by comparison of HPLC peak height (or area) with the peak height (or area) taken from a standard plot of concentration vs. peak height (or area) for standards of known concentration. […]

## O=C1Cc2cc(CCN3CCN(c4nsc5ccccc45)CC3)c(Cl)cc2N1 [aspartate, ziprasidone]
[1]
  Solubility in 40% HPBCD: 1.3 μgA/ml

## O=C1Cc2cc(CCN3CCN(c4nsc5ccccc45)CC3)c(Cl)cc2N1 [besylate, ziprasidone]
[2]
  Solubility in water: 80 μgA/ml

## O=C1Cc2cc(CCN3CCN(c4nsc5ccccc45)CC3)c(Cl)cc2N1 [esylate, Ziprasidone Esylate]
[1]
  Solubility in 40% HPBCD: 13.7 μgA/ml

## O=C1Cc2cc(CCN3CCN(c4nsc5ccccc45)CC3)c(Cl)cc2N1 [free base, ziprasidone, reference compound]
[2]
  Solubility in water: 0.3 μgA/ml

## O=C1Cc2cc(CCN3CCN(c4nsc5ccccc45)CC3)c(Cl)cc2N1 [hydrochloride, ziprasidone]
[1]
  Solubility in 40% HPBCD: 2.4 μgA/ml
[2]
  Solubility in water: 80 μgA/ml

## O=C1Cc2cc(CCN3CCN(c4nsc5ccccc45)CC3)c(Cl)cc2N1 [mesylate, Ziprasidone Mesylate]
[1]
  Solubility in 40% HPBCD: 17.3 μgA/ml
[2]
  Solubility in water: 1000 μgA/ml
[3]
  Comparison of solubility among the salt candidates and cyclodextrin solutions tested: highest solubility

## O=C1Cc2cc(CCN3CCN(c4nsc5ccccc45)CC3)c(Cl)cc2N1 [tartrate, Ziprasidone Tartrate]
[1]
  Solubility in 40% HPBCD: 12.4 μgA/ml
[2]
  Solubility in water: 180 μgA/ml

Reference: patent US6399777B2, “Inclusion complexes of aryl-heterocyclic salts” (Pfizer Inc., priority 1996, dated 2002)
